Experimental findings from ChEMBL document CHEMBL3797029, “Purinylpyridinylamino-based DFG-in/αC-helix-out B-Raf inhibitors: Applying mutant versus wild-type B-Raf selectivity indices for compound profiling” (Bioorg Med Chem, 2016) are described below.

Test [1] deals with T1, Serine/threonine-protein kinase B-raf (Homo sapiens, UniProt P15056). Briefly: Inhibition of wild type B-Raf (unknown origin) assessed as MEK1 phosphorylation using MEK1-Avitag as substrate after 1 hr by HTRF assay.
Test [2] deals with T2, Serine/threonine-protein kinase B-raf (Homo sapiens, UniProt P15056, V600E). Briefly: Inhibition of B-Raf V600E mutant (unknown origin) assessed as MEK1 phosphorylation using MEK1-Avitag as substrate after 1 hr by HTRF assay.
T2 sequence (P15056 2-766 V600E limits assumed): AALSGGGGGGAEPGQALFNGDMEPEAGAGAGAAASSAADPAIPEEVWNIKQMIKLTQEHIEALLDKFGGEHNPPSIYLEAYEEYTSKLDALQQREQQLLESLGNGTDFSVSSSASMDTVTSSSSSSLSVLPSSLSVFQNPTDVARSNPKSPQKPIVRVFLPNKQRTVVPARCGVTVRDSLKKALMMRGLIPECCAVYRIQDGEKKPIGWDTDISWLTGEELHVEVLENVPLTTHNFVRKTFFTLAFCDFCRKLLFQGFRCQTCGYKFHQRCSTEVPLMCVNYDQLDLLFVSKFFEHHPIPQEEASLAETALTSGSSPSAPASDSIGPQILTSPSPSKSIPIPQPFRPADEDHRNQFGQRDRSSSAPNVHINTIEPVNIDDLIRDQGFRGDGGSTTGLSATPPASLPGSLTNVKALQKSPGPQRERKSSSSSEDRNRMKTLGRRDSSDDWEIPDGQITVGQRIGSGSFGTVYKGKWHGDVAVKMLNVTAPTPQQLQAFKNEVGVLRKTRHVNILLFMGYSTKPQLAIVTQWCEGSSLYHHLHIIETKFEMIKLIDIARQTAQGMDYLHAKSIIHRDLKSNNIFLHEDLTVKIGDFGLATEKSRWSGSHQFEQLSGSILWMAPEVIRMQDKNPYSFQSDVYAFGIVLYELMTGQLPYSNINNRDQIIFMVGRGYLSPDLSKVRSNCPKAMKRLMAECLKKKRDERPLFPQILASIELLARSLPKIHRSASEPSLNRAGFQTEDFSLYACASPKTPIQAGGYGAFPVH
Test [3] addresses T1, Serine/threonine-protein kinase B-raf. Briefly: Inhibition of wild type B-Raf in human MIAPaCa2 cells assessed as reduction in ERK phosphorylation preincubated for 1 hr by Western blot method. The test is classed as cell-based, MIA PaCa-2. (In western blotting, separated proteins are transferred to a membrane and probed.)
The target of test [4] is T2, Serine/threonine-protein kinase B-raf. Briefly: Inhibition of B-Raf V600E mutant in human A375 cells assessed as ERK phosphorylation preincubated for 1 hr by Western blot method. The test is classed as cell-based, A-375.
The next test concerns MIA PaCa-2. Briefly: Selectivity index, ratio of EC50 for wild type B-Raf in human MIAPaCa2 cells to IC50 for B-Raf V600E mutant in human A375 cells. In kind it is cell-based.

pEC50, pIC50: −log10 of the molar value.

T1 sequence (P15056 whole entry): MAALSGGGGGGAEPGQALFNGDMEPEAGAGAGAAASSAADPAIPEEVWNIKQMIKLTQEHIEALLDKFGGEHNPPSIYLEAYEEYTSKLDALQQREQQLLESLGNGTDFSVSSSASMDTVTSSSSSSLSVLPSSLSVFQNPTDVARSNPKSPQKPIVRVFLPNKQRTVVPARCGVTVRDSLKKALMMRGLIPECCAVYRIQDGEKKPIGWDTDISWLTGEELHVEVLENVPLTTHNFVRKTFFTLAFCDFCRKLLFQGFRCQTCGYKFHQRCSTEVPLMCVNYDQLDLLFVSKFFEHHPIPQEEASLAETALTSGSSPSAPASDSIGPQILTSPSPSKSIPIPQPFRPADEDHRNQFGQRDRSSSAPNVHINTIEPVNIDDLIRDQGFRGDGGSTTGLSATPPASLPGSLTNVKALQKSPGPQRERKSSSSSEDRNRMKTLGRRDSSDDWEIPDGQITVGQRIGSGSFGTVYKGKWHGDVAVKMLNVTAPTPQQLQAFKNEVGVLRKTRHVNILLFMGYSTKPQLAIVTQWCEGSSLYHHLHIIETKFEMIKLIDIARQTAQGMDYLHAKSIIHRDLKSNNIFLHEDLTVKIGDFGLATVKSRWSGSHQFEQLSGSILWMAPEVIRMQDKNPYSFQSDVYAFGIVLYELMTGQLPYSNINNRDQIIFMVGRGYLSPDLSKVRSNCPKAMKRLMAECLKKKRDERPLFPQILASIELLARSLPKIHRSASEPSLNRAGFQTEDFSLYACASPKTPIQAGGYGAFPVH

With `CC(C)S(=O)(=O)Nc1ccc(F)c(Nc2ncccc2-c2ncnc3[nH]cnc23)c1F`, the figures for the pIC50 in test [1], in test [2] and in test [4] were 7.18, 7.85 and 7.35, respectively. Also, the pEC50 in test [3] is 5.81. Besides, the Ratio with MIA PaCa-2 stood at 34.

Consider `O=S(=O)(Nc1ccc(F)c(Nc2ncccc2-c2ncnc3[nH]cnc23)c1F)c1cccs1`, for which the pIC50 in test [1] was 9.30; in test [2] it was 9.00; in test [4], 8.15. In addition, in test [3], the negative-log EC50 (pEC50) was 6.40. Further, the Ratio in the test with MIA PaCa-2 was found to be 57.

As to `O=S(=O)(Cc1ccccc1)Nc1ccc(F)c(Nc2ncccc2-c2ncnc3[nH]cnc23)c1F`, the pIC50 in test [1] was 6.95; in test [2], 6.73; in test [4] it was less than 6.00. In addition, the pEC50 in test [3] was 5.29.

Regarding `CCN(CC)S(=O)(=O)Nc1ccc(F)c(Nc2ncccc2-c2ncnc3[nH]cnc23)c1F`, the pIC50 in test [1] was 6.78; in test [2], 7.24; in test [4], 6.22. Moreover, the pEC50 in test [3] is 5.00. In the test on MIA PaCa-2, the Ratio was found to be 16.

Turning to `CC(C)(C)CS(=O)(=O)Nc1ccc(F)c(Nc2ncccc2-c2ncnc3[nH]cnc23)c1F`, the pIC50 is 8.30 in test [1], 8.22 in test [2] and 7.20 in test [4]. In addition, the pEC50 in test [3] was 6.69. Also, in the test with MIA PaCa-2, the Ratio amounted to 3.

On to `O=S(=O)(Nc1ccc(F)c(Nc2ncccc2-c2ncnc3[nH]cnc23)c1F)N1CCCC1`, for which the figures for the pIC50 in test [1], in test [2] and in test [4] were 7.51, 8.70 and 7.36, respectively. In addition, in test [3], the pEC50 was 5.68. In the test with MIA PaCa-2, the Ratio is 47.

Consider `O=S(=O)(Nc1ccc(F)c(Nc2ncccc2-c2ncnc3[nH]cnc23)c1F)C1CCCC1`, for which the pIC50 in test [1] is 7.68; in test [2], 8.70; in test [4] it was 7.96. In test [3], the pEC50 was 5.74. For the same compound, the Ratio in the test with MIA PaCa-2 worked out at 164.

In the case of `O=S(=O)(Nc1ccc(F)c(Nc2ncccc2-c2ncnc3[nH]cnc23)c1F)N1CCOCC1`, the pIC50 in test [1] is 6.99; in test [2], 7.21; in test [4], 6.53. In test [3], the pEC50 is 5.45. The Ratio in the test on MIA PaCa-2 turned out to be 12.

On to `O=S(=O)(Nc1ccc(F)c(Nc2ncccc2-c2ncnc3[nH]cnc23)c1F)c1ccccc1F`, for which the pIC50 is 8.00 in test [1], 8.52 in test [2] and 7.92 in test [4]. Further, the pEC50 in test [3] was 6.06. For the same compound, the Ratio in the test on MIA PaCa-2 is 73.

Regarding `CS(=O)(=O)Nc1ccc(F)c(Nc2ncccc2-c2ncnc3[nH]cnc23)c1F`, the pIC50 in test [1] was 6.39; in test [2] it was 6.44; in test [4], 6.45. The negative logarithm of the EC50 (pEC50) in test [3] was 5.17. In addition, the Ratio in the test on MIA PaCa-2 was determined as 19.

With `O=S(=O)(Nc1ccc(F)c(Nc2ncccc2-c2ncnc3[nH]cnc23)c1F)N1CCNCC1`, the pIC50 in test [1] is less than 6.00; in test [2], less than 6.00; in test [4] it was 6.00.

On to `O=S(=O)(Nc1ccc(F)c(Nc2ncccc2-c2ncnc3[nH]cnc23)c1F)N1CC[C@H](O)C1`, for which the figures for the pIC50 in test [1], in test [2] and in test [4] were 6.91, 8.05 and 6.70, respectively.

In the case of `O=S(=O)(CC(F)(F)F)Nc1ccc(F)c(Nc2ncccc2-c2ncnc3[nH]cnc23)c1F`, the pIC50 in test [1] is 8.00; in test [2] it was 8.52; in test [4], 7.40. The pEC50 in test [3] was 6.15. The Ratio with MIA PaCa-2 amounted to 18.

`CCCC(C)S(=O)(=O)Nc1ccc(F)c(Nc2ncccc2-c2ncnc3[nH]cnc23)c1F` (stereo not given): the pIC50 is 6.95 in test [1], 7.74 in test [2] and 6.89 in test [4]. In addition, the pEC50 in test [3] was 5.09. In the test with MIA PaCa-2, the Ratio turned out to be 62.

For `O=S(=O)(Nc1ccc(F)c(Nc2ncccc2-c2ncnc3[nH]cnc23)c1F)N1CCCCC1`, the figures for the pIC50 in test [1], in test [2] and in test [4] were 7.42, 7.82 and 7.19, respectively. Besides, in test [3], the pEC50 was 5.91. Moreover, the Ratio in the test on MIA PaCa-2 stood at 19.

`O=S(=O)(Nc1ccc(F)c(Nc2ncccc2-c2ncnc3[nH]cnc23)c1F)c1ccccc1`: the pIC50 in test [1] is 7.77; in test [2], 8.15; in test [4] it was 7.55. Moreover, the pEC50 in test [3] is 5.64. For the same compound, the Ratio in the test on MIA PaCa-2 was 82.

Consider `CCN(C)S(=O)(=O)Nc1ccc(F)c(Nc2ncccc2-c2ncnc3[nH]cnc23)c1F`, for which the results for the pIC50 in test [1], in test [2] and in test [4] were 6.80, 7.66 and 7.06, respectively. Also, the pEC50 in test [3] is 5.75. Further, in the test on MIA PaCa-2, the Ratio was 20.

For `O=S(=O)(CC1CC1)Nc1ccc(F)c(Nc2ncccc2-c2ncnc3[nH]cnc23)c1F`, the pIC50 is 7.59 in test [1], 8.10 in test [2] and 7.48 in test [4]. Also, the pEC50 in test [3] was 5.67. For the same compound, in the test on MIA PaCa-2, the Ratio came to 65.

As for `O=S(=O)(Nc1ccc(F)c(Nc2ncccc2-c2ncnc3[nH]cnc23)c1F)C1CC1`, the pIC50 in test [1] was 6.88; in test [2], 7.39; in test [4], 6.76. The pEC50 in test [3] is 5.68. Moreover, the Ratio in the test with MIA PaCa-2 was 12.

As to `O=S(=O)(Nc1ccc(F)c(Nc2ncccc2-c2ncnc3[nH]cnc23)c1F)c1ccc(F)cc1`, the values for the pIC50 in test [1], in test [2] and in test [4] were 7.08, 7.44 and 6.62, respectively. The pEC50 in test [3] is 5.25. Further, the Ratio in the test with MIA PaCa-2 was 23.

As to `CC(C)CS(=O)(=O)Nc1ccc(F)c(Nc2ncccc2-c2ncnc3[nH]cnc23)c1F`, the figures for the pIC50 in test [1], in test [2] and in test [4] were 7.80, 8.22 and 7.77, respectively. The pEC50 in test [3] was 5.84. Further, the Ratio in the test with MIA PaCa-2 amounted to 85.

On to `O=S(=O)(Nc1ccc(F)c(Nc2ncccc2-c2ncnc3[nH]cnc23)c1F)c1cn[nH]c1`, for which the pIC50 in test [1] was 9.00; in test [2] it was 9.70; in test [4], 8.22. Besides, the pEC50 in test [3] was 6.09. For the same compound, the Ratio with MIA PaCa-2 came to 135.

As to `O=S(=O)(Nc1ccc(F)c(Nc2ncccc2-c2ncnc3[nH]cnc23)c1F)C1CCOC1` (stereo not given), the pIC50 in test [1] was 7.59; in test [2] it was 8.30; in test [4] it was 7.51. Besides, the pEC50 in test [3] is 5.83. Further, in the test with MIA PaCa-2, the Ratio worked out at 48.

Regarding `O=S(=O)(Nc1ccc(F)c(Nc2ncccc2-c2ncnc3[nH]cnc23)c1F)c1nccs1`, the pIC50 in test [1] was 8.70; in test [2], 9.00; in test [4], 7.51. Moreover, the pEC50 in test [3] was 6.11. Further, the Ratio in the test on MIA PaCa-2 was 25.

Regarding `Cn1cc(S(=O)(=O)Nc2ccc(F)c(Nc3ncccc3-c3ncnc4[nH]cnc34)c2F)cn1`, the pIC50 in test [1] is 7.72; in test [2], 8.10; in test [4] it was 6.15. Moreover, the pEC50 in test [3] was 5.65. In the test with MIA PaCa-2, the Ratio stood at 3.

For the compound `O=S(=O)(Nc1ccc(F)c(Nc2ncccc2-c2ncnc3[nH]cnc23)c1F)c1cccc(F)c1`, the pIC50 in test [1] was 8.40; in test [2], 8.52; in test [4], 7.82. Also, the pEC50 in test [3] is 5.82. Besides, the Ratio with MIA PaCa-2 stood at 101.

`O=S(=O)(Nc1ccc(F)c(Nc2ncccc2-c2ncnc3[nH]cnc23)c1F)C1CCC1`: the pIC50 in test [1] was 7.34; in test [2], 8.40; in test [4], 7.39. Moreover, the pEC50 in test [3] was 5.75. Also, the Ratio in the test with MIA PaCa-2 stood at 44.

For the compound `CCC(C)S(=O)(=O)Nc1ccc(F)c(Nc2ncccc2-c2ncnc3[nH]cnc23)c1F` (stereo not given), the results for the pIC50 in test [1], in test [2] and in test [4] were 7.42, 8.15 and 7.57, respectively. For the same compound, the pEC50 in test [3] was 6.11. Moreover, the Ratio in the test on MIA PaCa-2 is 29.

Take `O=S(=O)(Nc1ccc(F)c(Nc2ncccc2-c2ncnc3[nH]cnc23)c1F)c1cccnc1`: the figures for the pIC50 in test [1], in test [2] and in test [4] were 9.00, 9.00 and 8.00, respectively. The pEC50 in test [3] was 6.10. In addition, the Ratio with MIA PaCa-2 amounted to 79.

For `CCCS(=O)(=O)Nc1ccc(F)c(Nc2ncccc2-c2ncnc3[nH]cnc23)c1F`, the results for the pIC50 in test [1], in test [2] and in test [4] were 7.92, 8.05 and 7.62, respectively. Moreover, in test [3], the pEC50 was 6.03. Moreover, the Ratio in the test with MIA PaCa-2 stood at 39.

Regarding `O=S(=O)(Nc1ccc(F)c(Nc2ncccc2-c2ncnc3[nH]cnc23)c1F)C1CCCCC1`, the pIC50 was 7.29 in test [1], 7.74 in test [2] and 7.40 in test [4]. The pEC50 in test [3] is 5.36. In the test with MIA PaCa-2, the Ratio was 109.

For `Cc1n[nH]c(C)c1S(=O)(=O)Nc1ccc(F)c(Nc2ncccc2-c2ncnc3[nH]cnc23)c1F`, the pIC50 is 6.67 in test [2] and less than 6.00 in test [4].

As to `O=S(=O)(Nc1ccc(F)c(Nc2ncccc2-c2ncnc3[nH]cnc23)c1F)c1ccccn1`, the pIC50 in test [1] was 7.39; in test [2], 7.68; in test [4], 6.75. Also, the pEC50 in test [3] is 5.10. Further, in the test with MIA PaCa-2, the Ratio stood at 45.

In the case of `O=S(=O)(Nc1ccc(F)c(Nc2ncccc2-c2ncnc3[nH]cnc23)c1F)N1CC[C@@H](O)C1`, the pIC50 in test [1] was 7.17; in test [2] it was 7.80; in test [4] it was 6.63. In test [3], the pEC50 was 5.14. Besides, the Ratio in the test with MIA PaCa-2 was 31.

For the compound `O=S(=O)(Nc1ccc(F)c(Nc2ncccc2-c2ncnc3[nH]cnc23)c1F)C1CCOCC1`, the pIC50 in test [1] was 6.75; in test [2], 7.51; in test [4], 6.45.

Broadly, the pIC50 is the negative decadic logarithm of the IC50, by convention in mol/L. What is called pEC50 is the EC50 on a negative log10 scale, so that one unit is a factor of ten.
